Source: US8680159B2, “Bradykinin 1 receptor modulating compounds” (Gruenenthal GmbH, priority 2010, dated 2014)

Each compound was assayed against T1, B1R receptor of the rat (CHO K1 cells stably transfected with the B1R gene of the rat) (Rattus norvegicus, UniProt P97583) (assay: Functional study on the bradykinin receptor 1 (B1R), Ca2+ fluorescence (Fluo-4) FLIPR/Novostar assay, rB1R cells). Conditions: 10 μM.
T1 construct: expressed in transfected cells; host or cells: CHO K1 cells (Chinese hamster ovary), stably transfected
T1 sequence (P97583 1-337): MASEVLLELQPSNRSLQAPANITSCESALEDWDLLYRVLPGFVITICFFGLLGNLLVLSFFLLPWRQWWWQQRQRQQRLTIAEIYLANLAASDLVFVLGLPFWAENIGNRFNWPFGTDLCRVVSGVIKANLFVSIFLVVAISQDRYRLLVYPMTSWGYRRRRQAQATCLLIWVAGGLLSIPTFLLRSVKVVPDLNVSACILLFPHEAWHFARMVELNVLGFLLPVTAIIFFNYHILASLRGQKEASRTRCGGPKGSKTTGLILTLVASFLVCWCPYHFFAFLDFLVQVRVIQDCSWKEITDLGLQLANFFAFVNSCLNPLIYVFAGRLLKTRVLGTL
Format: cell-based
Method: The agonistic or antagonistic action of substances can be quantified on the bradykinin receptor 1 (B1R) of the species human and rat using ectopically expressing cell lines (CHO K1 cells) and with the aid of a Ca^2+-sensitive dye (Fluo-4) using a fluorescent imaging plate reader (FLIPR). The indication in % activation is based on the Ca^2+ signal after addition of Lys-Des-Arg^9-bradykinin (0.5 nM) or Des-Arg^9-bradykinin (100 nM). Antagonists lead to suppression of the Ca^2+ influx after the addition of the agonist. % Inhibition compared with the maximum achievable inhibition is indicated.
The agonistic or antagonistic action of substances can be determined on the bradykinin receptor 1 (B1R) of the species human and rat using the following assay. According to this assay, the increase in intracellular Ca^2+ following administration of a B1R agonist is quantified with the aid of a Ca^2+-sensitive dye (Fluo-4 type, Molecular Probes Europe BV, Leiden, Netherlands) using a Fluorescent Imaging Plate Reader (FLIPR, Molecular Devices, Sunnyvale, USA) and/or using a Novostar (BMG Labtech GmbH, Offenburg, Germany).
Chinese hamster ovary cells (CHO K1 cells) which have been stably transfected with the human B1R gene (hB1R cells) or with the B1R gene of the rat (rB1R cells) are used. For functional studies, the cells are plated out on black 96-well plates having a clear base (BD Biosciences, Heidelberg, Germany or Greiner, Frickenhausen, Germany) in a density of 20,000-35,000 cells/well. The cells are left overnight at 37° C. and with 5% CO2 in culture medium (hB1R cells: Nutrient Mixture Ham's F12, Gibco Invitrogen GmbH, Karlsruhe, Germany or DMEM, Sigma-Aldrich, Taufkirchen, Germany; rB1R cells: D-MEM/F12, Gibco Invitrogen GmbH, Karlsruhe, Germany), with 10 vol. % FBS (fetal bovine serum, Gibco Invitrogen GmbH, Karlsruhe, Germany or PAN Biotech GmbH, Aidenbach, Germany). On the following day, the cells are loaded for 60 minutes at 37° C. with 2.13 μM Fluo-4 (Molecular Probes Europe BV, Leiden, Netherlands) in HBSS buffer (Hank's buffered saline solution, Gibco Invitrogen GmbH, Karlsruhe, Germany) […] (Sigma-Aldrich, Taufkirchen, Germany) and 10 mM HEPES (Sigma-Aldrich, Taufkirchen, Germany). The plates are then washed twice with HBSS buffer, and HBSS buffer additionally containing 0.1% BSA (bovine serum albumin; Sigma-Aldrich, Taufkirchen, Germany), 5.6 mM glucose and 0.05% gelatin (Merck KGaA, Darmstadt, Germany) is added to the plates. After incubation for a further 20 minutes at room temperature, the plates are inserted into the FLIPR or Novostar for Ca^2+ measurement. Alternatively, washing is carried out with buffer A (15 mM HEPES, 80 mM NaCl, 5 mM KCl, 1.2 mM CaCl2, 0.7 mM MgSO4, 2 g/l glucose, 2.5 mM probenecid) followed by loading with buffer A with added 2.5 μM Fluo-4 and 0.025% Pluronic F127 (Sigma-Aldrich, Taufkirchen, Germany). The cells are then washed twice with buffer A and incubated for 30 minutes at room temperature with buffer A additionally containing 0.05% BSA and 0.05% gelatin and are then inserted into the FLIPR or Novostar for Ca^2+ measurement. The Ca^2+-dependent fluorescence is measured before and after the addition of substances (λex=488 nm, λem=540 nm). Quantification is carried out by measuring the highest fluorescence intensity (FC, fluorescence counts) over time.
The FLIPR protocol consists of 2 substance additions, which are pipetted in the FLIPR. In the case of measurements using the Novostar, only the second substance addition is pipetted in the device. Both devices measure the fluorescence intensity over time. Test substances (10 μM) are first pipetted onto the cells and the intracellular Ca^2+ increase is compared with the control (hB1R: Lys-Des-Arg^9-bradykinin>=50 nM; rB1R: Des-Arg^9-bradykinin>=1 μM). This gives the % activation, based on the Ca^2+ signal after addition of Lys-Des-Arg^9-bradykinin (>=50 nM) or Des-Arg^9-bradykinin (>=1 μM). […]

With `CN(C(=O)NC1CC(C)(C)c2ccc(C(=O)N(C)C3CCN(c4ccncc4)CC3)cc21)c1ccccc1Cl` (stereo not shown) [CC_H-245, 3-[[(2-Chlorophenyl)-methyl-carbamoyl]amino]-N,1,1-trimethyl-N-(1-pyridin-4-yl-piperidin-4-yl)-2,3-dihydro-indene-5-carboxylic acid amide] the “% Inhibition (r-B1R) at 10 μM” value was 107%.

Same assay, conditions: CHO-K1, 10 μM, read-out: % Inhibition (r-B1R) at 10 μM

In order of falling inhibition at 10 µM:
1. CN(C(=O)c1ccc2c(c1)C(NC(=O)c1c(Cl)cccc1C(F)(F)F)CC2(C)C)C1CCN(c2ccncc2)CC1 (stereo not shown) [CC_H-225, 3-[[2-Chloro-6-(trifluoromethyl)-benzoyl]amino]-N,1,1-trimethyl-N-(1-pyridin-4-yl-piperidin-4-yl)-2,3-dihydro-indene-5-carboxylic acid amide]  112%
2. CN(C(=O)c1ccc2c(c1)C(NC(=O)CC(C)(C)C)CC2(C)C)C1CCN(c2ccncc2)CC1 (stereo not shown) [CC_H-227, 3-(3,3-Dimethyl-butanoylamino)-N,1,1-trimethyl-N-(1-pyridin-4-yl-piperidin-4-yl)-2,3-dihydro-indene-5-carboxylic acid amide]  112%
3. CN(C(=O)c1ccc2c(c1)C(NC(=O)c1cc(F)ccc1Cl)CCC2)C1CCN(c2ccncc2)CC1 (stereo not shown) [CC_H-246, 8-[(2-Chloro-5-fluoro-benzoyl)amino]-N-methyl-N-(1-pyridin-4-yl-piperidin-4-yl)-5,6,7,8-tetrahydro-naphthalene-2-carboxylic acid amide]  112%
4. CN(C(=O)c1ccc2c(c1)C(NC(=O)c1cccc(C(F)(F)F)c1Cl)CC2(C)C)C1CCN(c2ccncc2)CC1 (stereo not shown) [CC_H-231, 3-[[2-Chloro-3-(trifluoromethyl)-benzoyl]amino]-N,1,1-trimethyl-N-(1-pyridin-4-yl-piperidin-4-yl)-2,3-dihydro-indene-5-carboxylic acid amide]  111%
5. CN(C(=O)c1ccc2c(c1)C(NC(=O)c1cc(F)ccc1Cl)CC2(C)C)C1CCN(c2ccncc2)CC1 (stereo not shown) [CC_H-222, 3-[(2-Chloro-5-fluoro-benzoyl)amino]-N,1,1-trimethyl-N-(1-pyridin-4-yl-piperidin-4-yl)-2,3-dihydro-indene-5-carboxylic acid amide]  110%
6. Cc1ccc(F)c(C(=O)NC2CC(C)(C)c3ccc(C(=O)N(C)C4CCN(c5ccncc5)CC4)cc32)c1Cl (stereo not shown) [CC_H-224, 3-[(2-Chloro-6-fluoro-3-methyl-benzoyl)amino]-N,1,1-trimethyl-N-(1-pyridin-4-yl-piperidin-4-yl)-2,3-dihydro-indene-5-carboxylic acid amide]  110%
7. Cc1cccc(Cl)c1S(=O)(=O)NC1CC(C)(C)c2ccc(C(=O)N(C)C3CCN(c4ccncc4)CC3)cc21 (stereo not shown) [CC_H-230, 3-[[(2-Chloro-6-methyl-phenyl)sulfonyl]amino]-N,1,1-trimethyl-N-(1-pyridin-4-yl-piperidin-4-yl)-2,3-dihydro-indene-5-carboxylic acid amide]  110%
8. CN(C(=O)c1ccc2c(c1)C(NC(=O)c1cc(C(F)(F)F)ccc1Cl)CC2(C)C)C1CCN(c2ccncc2)CC1 (stereo not shown) [CC_H-223, 3-[[2-Chloro-5-(trifluoromethyl)-benzoyl]amino]-N,1,1-trimethyl-N-(1-pyridin-4-yl-piperidin-4-yl)-2,3-dihydro-indene-5-carboxylic acid amide]  109%
9. CN(C(=O)c1ccc2c(c1)C(NC(=O)Nc1c(Cl)cccc1Cl)CC2(C)C)C1CCN(c2ccncc2)CC1 (stereo not shown) [CC_H-234, 3-[[(2,6-Dichloro-phenyl)-carbamoyl]amino]-N,1,1-trimethyl-N-(1-pyridin-4-yl-piperidin-4-yl)-2,3-dihydro-indene-5-carboxylic acid amide]  108%
10. COCC(=O)NC1CC(C)(C)c2ccc(C(=O)N(C)C3CCN(c4ccncc4)CC3)cc21 (stereo not shown) [CC_H-228, 3-[(2-Methoxy-acetyl)amino]-N,1,1-trimethyl-N-(1-pyridin-4-yl-piperidin-4-yl)-2,3-dihydro-indene-5-carboxylic acid amide]  107%
11. CC(=O)NC1CC(C)(C)c2ccc(C(=O)N(C)C3CCN(c4ccncc4)CC3)cc21 (stereo not shown) [CC_H-229, 3-Acetylamino-N,1,1-trimethyl-N-(1-pyridin-4-yl-piperidin-4-yl)-2,3-dihydro-indene-5-carboxylic acid amide]  104%
12. CN(C(=O)c1ccc2c(c1)C(NC(=O)C1CC1)CC2(C)C)C1CCN(c2ccncc2)CC1 (stereo not shown) [CC_H-226, 3-(Cyclopropanecarbonylamino)-N,1,1-trimethyl-N-(1-pyridin-4-yl-piperidin-4-yl)-2,3-dihydro-indene-5-carboxylic acid amide]  99%
13. CN(C(=O)c1ccc2c(c1)C(NC(=O)Nc1ccccc1Cl)CC2(C)C)C1CCN(c2ccncc2)CC1 (stereo not shown) [CC_H-232, 3-[[(2-Chlorophenyl)-carbamoyl]amino]-N,1,1-trimethyl-N-(1-pyridin-4-yl-piperidin-4-yl)-2,3-dihydro-indene-5-carboxylic acid amide]  96%
14. CN(C(=O)c1ccc2c(c1)C(N(C)C(=O)Nc1cc(Cl)ccc1Cl)CC2)C1CCN(c2ccncc2)CC1 (stereo not shown) [CC_H-221, 3-[[(2,5-Dichloro-phenyl)-carbamoyl]-methyl-amino]-N-methyl-N-(1-pyridin-4-yl-piperidin-4-yl)-2,3-dihydro-1H-indene-5-carboxylic acid amide]  67%
15. CN(C(=O)c1ccc2c(c1)C(NC(=O)Nc1cccc(Cl)c1Cl)CC2(C)C)C1CCN(c2ccncc2)CC1 (stereo not shown) [CC_H-235, 3-[[(2,3-Dichloro-phenyl)-carbamoyl]amino]-N,1,1-trimethyl-N-(1-pyridin-4-yl-piperidin-4-yl)-2,3-dihydro-indene-5-carboxylic acid amide]  65%
16. CN(C(=O)c1ccc2c(c1)C(NC(=O)Nc1cccc(Cl)c1)CC2(C)C)C1CCN(c2ccncc2)CC1 (stereo not shown) [CC_H-233, 3-[[(3-Chlorophenyl)-carbamoyl]amino]-N,1,1-trimethyl-N-(1-pyridin-4-yl-piperidin-4-yl)-2,3-dihydro-indene-5-carboxylic acid amide]  63%
17. CN(C(=O)c1ccc2c(c1)C(NC(=O)Nc1cc(Cl)ccc1Cl)CC2(C)C)C1CCN(c2ccncc2)CC1 (stereo not shown) [CC_H-236, 3-[[(2,5-Dichloro-phenyl)-carbamoyl]amino]-N,1,1-trimethyl-N-(1-pyridin-4-yl-piperidin-4-yl)-2,3-dihydro-indene-5-carboxylic acid amide]  52%
18. CN(C(=O)c1ccc2c(c1)C(NC(=O)Nc1ccc(F)c(Cl)c1)CC2(C)C)C1CCN(c2ccncc2)CC1 (stereo not shown) [CC_H-242, 3-[[(3-Chloro-4-fluoro-phenyl)-carbamoyl]amino]-N,1,1-trimethyl-N-(1-pyridin-4-yl-piperidin-4-yl)-2,3-dihydro-indene-5-carboxylic acid amide]  52%
